In patent US20260001888A1, “PYRAZOLOPYRIMIDINE PDE9 INHIBITORS” (Merck Sharp & Dohme LLC, priority 2018, published 2026) one finds Ki data, which are given here for six compounds.

Human PDE9 (PDE9A2), sequence (O76083 other isoform, or with tags, fused parts or gaps): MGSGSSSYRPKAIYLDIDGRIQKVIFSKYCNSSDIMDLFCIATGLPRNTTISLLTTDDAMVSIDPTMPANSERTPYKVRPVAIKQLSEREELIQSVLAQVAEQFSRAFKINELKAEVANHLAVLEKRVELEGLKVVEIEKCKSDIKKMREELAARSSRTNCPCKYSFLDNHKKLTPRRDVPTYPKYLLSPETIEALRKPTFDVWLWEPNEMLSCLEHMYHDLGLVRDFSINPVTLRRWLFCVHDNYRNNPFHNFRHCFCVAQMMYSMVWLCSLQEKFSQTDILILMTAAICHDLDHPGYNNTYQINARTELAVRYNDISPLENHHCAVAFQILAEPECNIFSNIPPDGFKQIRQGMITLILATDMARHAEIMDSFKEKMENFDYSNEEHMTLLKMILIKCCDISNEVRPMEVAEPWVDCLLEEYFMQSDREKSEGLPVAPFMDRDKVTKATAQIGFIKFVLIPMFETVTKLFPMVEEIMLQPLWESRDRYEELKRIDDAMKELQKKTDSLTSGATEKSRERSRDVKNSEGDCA

The assay concerns the target Human PDE9 (PDE9A2) (Homo sapiens (Human), UniProt O76083). Kind of assay: PDE9 IMAP fluorescence polarization (FP) inhibition assay. Format: biochemical. The following applies: apparent inhibition constant; human PDE9A2, FAM-cGMP substrate 50 nM, room temperature. In outline: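 N-terminal GST-tagged full-length PDE9A2 membrane prep (0.5 ng/ml final) preincubated 30 min with compound at room temperature, then 50 nM FAM-cGMP added for 60 min; IMAP binding reagent stops reaction, FP read after 1 h. Controls: known PDE9 inhibitor (100%), 1% DMSO (0%). KI from four-parameter fit.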
As for `CC(Cc1nc2c(c(C#N)nn2C(C)c2ccc(C(F)(F)F)nc2)c(=O)[nH]1)c1ncccn1` (single isomer, unassigned) [Example 85, 4-oxo-6-(2-(pyrimidin-2-yl)propyl)-1-(1-(6-(trifluoromethyl)pyridin-3-yl)ethyl)-4,5-dihydro-1H-pyrazolo[3,4-d]pyrimidine-3-carbonitrile], the Ki was 1.17 nM.
Regarding `CC(Cc1nc2c(c(C#N)nn2C(C)c2ccc(C(F)(F)F)nc2)c(=O)[nH]1)c1ncccn1` (single isomer, unassigned) [Example 86, 4-oxo-6-(2-(pyrimidin-2-yl)propyl)-1-(1-(6-(trifluoromethyl)pyridin-3-yl)ethyl)-4,5-dihydro-1H-pyrazolo[3,4-d]pyrimidine-3-carbonitrile], the Ki came out at 33.4 nM.
Consider `CCC(Cc1nc2c(c(C#N)nn2C(C)c2ccc(C(F)(F)F)nc2)c(=O)[nH]1)c1ncccn1` (single isomer, unassigned) [Example 87, 4-oxo-6-(2-(pyrimidin-2-yl)butyl)-1-(1-(6-(trifluoromethyl)pyridin-3-yl)ethyl)-4,5-dihydro-1H-pyrazolo[3,4-d]pyrimidine-3-carbonitrile], for which the Ki is 93.4 nM.
In the case of `CCC(Cc1nc2c(c(C#N)nn2C(C)c2ccc(C(F)(F)F)nc2)c(=O)[nH]1)c1ncccn1` (single isomer, unassigned) [Example 88, 4-oxo-6-(2-(pyrimidin-2-yl)butyl)-1-(1-(6-(trifluoromethyl)pyridin-3-yl)ethyl)-4,5-dihydro-1H-pyrazolo[3,4-d]pyrimidine-3-carbonitrile], the Ki amounted to 108 nM.
Then `CCC(Cc1nc2c(c(C#N)nn2C(C)c2ccc(C(F)(F)F)nc2)c(=O)[nH]1)c1ncccn1` (single isomer, unassigned) [Example 89, 4-oxo-6-(2-(pyrimidin-2-yl)butyl)-1-(1-(6-(trifluoromethyl)pyridin-3-yl)ethyl)-4,5-dihydro-1H-pyrazolo[3,4-d]pyrimidine-3-carbonitrile], with 0.24 nM.
For the compound `CCC(Cc1nc2c(c(C#N)nn2C(C)c2ccc(C(F)(F)F)nc2)c(=O)[nH]1)c1ncccn1` (single isomer, unassigned) [Example 90, 4-oxo-6-(2-(pyrimidin-2-yl)butyl)-1-(1-(6-(trifluoromethyl)pyridin-3-yl)ethyl)-4,5-dihydro-1H-pyrazolo[3,4-d]pyrimidine-3-carbonitrile], the Ki came to 28 nM.
